Laboratory results: patent publication US20150183737A1, “COMPOSITIONS AND METHODS FOR SUBSTRATE-SELECTIVE INHIBITION OF ENDOCANNABINOID OXYGENATION” (Vanderbilt University, priority 2012, published 2015)
Entries after “also recorded” stand apart in the source; their conditions may differ. Where two headings read alike, the source gives them in different places. One block for each compound: values may come before it.

Columns and labels:
[1] = target: T1, COX-2 (Mus musculus, UniProt Q05769); assay: Inhibition of COX-2 oxygenation by acetaminophen and its metabolites; type: biochemical; conditions: for Inhibition of AA oxygenation: up to 1 mM
T1 sequence (Q05769 18-604): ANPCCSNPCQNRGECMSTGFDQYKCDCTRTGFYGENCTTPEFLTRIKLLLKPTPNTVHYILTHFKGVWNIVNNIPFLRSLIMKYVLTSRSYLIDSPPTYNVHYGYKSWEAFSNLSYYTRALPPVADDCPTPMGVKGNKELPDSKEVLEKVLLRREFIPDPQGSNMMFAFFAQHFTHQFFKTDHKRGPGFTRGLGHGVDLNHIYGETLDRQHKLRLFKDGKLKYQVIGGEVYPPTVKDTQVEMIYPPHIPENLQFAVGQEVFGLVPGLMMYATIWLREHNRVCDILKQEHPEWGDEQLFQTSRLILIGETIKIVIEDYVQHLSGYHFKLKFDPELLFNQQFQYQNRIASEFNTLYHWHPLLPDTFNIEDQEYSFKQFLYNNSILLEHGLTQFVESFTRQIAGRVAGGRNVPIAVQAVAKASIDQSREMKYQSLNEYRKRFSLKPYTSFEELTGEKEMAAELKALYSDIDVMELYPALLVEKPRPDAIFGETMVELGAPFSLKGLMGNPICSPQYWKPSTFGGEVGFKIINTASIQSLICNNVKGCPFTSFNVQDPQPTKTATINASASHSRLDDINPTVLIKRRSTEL

[2] = target: T2, wild type mCOX-2 (Mus musculus, UniProt Q05769); assay: biochemical
T2 sequence (Q05769 18-604): T1 sequence (Q05769 18-604)

[3] = target: T3, COX-2 in RAW 264.7 macrophages (Mus musculus, UniProt Q05769); assay: RAW cells assay: oxygenation of 2-AG and AA; type: cell-based
T3 construct: endogenous in cells; host or cells: RAW 264.7 macrophages stimulated with LPS (and GM-CSF / interferon γ where described)
T3 sequence (Q05769 18-604): T1 sequence (Q05769 18-604)
Description: Two hours after stimulation, varying doses of inhibitor were added to the cell media and 6 hr after stimulation the media were collected and analyzed by LC-MS-MS for prostaglandin levels.
The cells were then stimulated overnight with 20 ng/ml of granulocyte-macrophage colony-stimulating factor. The media was replaced in the morning with DMEM with GLUTAMAX® and the cells were stimulated with 100 ng/ml lipopolysaccharide and 20 units/ml interferon γ. Two hours after stimulation varying doses of inhibitor were added to the cell media and 6 hours after stimulation the media was collected and extracted in acidified ethyl acetate spiked with deuterated internal standards. The organic layer was dried down under a stream of nitrogen gas and reconstituted in 1:1 water:methanol and analyzed by LC-MS/MS for prostaglandin levels using the same instrumentation, column, solvents and conditions as described for the in vitro assay above.

[4] = target: T4, purified murine COX-2 (Mus musculus, UniProt Q05769); assay: Inhibition of mCOX-2 dependent oxygenation of 2-AG and AA by profens in vitro; type: biochemical; parameters: made in house; host or cells: insect cells; conditions: achiral profens
T4 sequence (Q05769 18-604): T1 sequence (Q05769 18-604)
Description: Desired concentrations of inhibitor in DMSO or blank (DMSO) were incubated with mCOX-2 (40 nM) for 3 minutes in 100 mM Tris-HCl with 0.5 mM phenol, pH 8.0 at 37° C. After pre-incubation of enzyme and inhibitor, 5 μM of AA or 2-AG was added at 37° C. Thirty seconds later, the reaction was quenched with 200 μL of ice-cold ethyl acetate containing 0.5% acetic acid (v/v) and 1 μM PGE2-d4 and PGE2-G-d5. The solution was then vortexed and the aqueous layer frozen. The organic layer was removed and evaporated to near-dryness under nitrogen. The samples were reconstituted in 1:1 MeOH:H2O and chromatographed using a LUNA® C18(2) column (50 2 mm, 3 μm; Phenomenex, Torrance, Calif., United States of America). […] Analyte peak areas were normalized to the appropriate internal standard to determine the amount of product formation, and inhibition was determined by normalization to a DMSO control.

[5] = target: T5, mCOX-2 (Mus musculus, UniProt Q05769); assay: Inhibition of COX-2-mediated oxygenation of arachidonic acid and 2-AG, purified enzyme, 15 min preincubation; type: biochemical, murine
T5 construct: made in house; host or cells: insect cells
T5 sequence (Q05769 18-604): T1 sequence (Q05769 18-604)
Description: Various concentrations of inhibitor (or DMSO) were incubated with mCOX-2 (200 nM) for 5-15 minutes in 100 mM Tris-HCl with 0.5 mM phenol, pH 8.0. For mutant mCOX-2 experiments, the enzyme concentration was adjusted such that the turnover was approximately equal to wild type enzyme. The preincubation time was determined on the basis of previous reports regarding the time required to achieve maximal inhibition, and preincubation was performed at 25° C. except for the final 3 minutes, which took place at 37° C. […] After the preincubation of enzyme and inhibitor, arachidonic acid or 2-AG was added for 30 seconds at 37° C. The reaction was quenched with ice-cold ethyl acetate containing 0.5% (v/v) acetic acid and 1 μM PGE2-d4 and PGE2-G-d5. The solution was then vigorously mixed and cooled on ice. The organic layer was separated and evaporated to near-dryness under nitrogen. […] Peak areas for analytes were normalized to the appropriate internal standard to determine the amount of product formation, and the amount of inhibition was determined by normalization to a DMSO control.

[6] = tested on: brain eCB, AA and PG levels; assay: Brain eCB, NAE, MAG, AA and PG levels after i.p. injection; type: in vivo, mice; conditions: for Brain AA levels / Brain PG levels: 10 mg/kg i.p. (Compound A: any dose tested); for Brain AEA levels: 10 mg/kg i.p.
Description: 5-7 week old male ICR mice were used for all experiments with the exception of knockout animals (Harlan, Indianapolis, Ind., United States of America). Mice were housed 5 per […]. All behavioral tests were conducted during the light cycle between 0900 and 1700. KO and WT littermate controls for FAAH^(−/−) and COX-2^(−/−) mice were derived from heterozygote breeding pairs, bred and genotyped as described in Uddin et al., 2011. CB1^(−/−) mice were bred from homozygote breeding pairs and genotyped as described in Pan et al., 2008. Mice were group-housed on a 12:12 light-dark cycle (lights on at 06:00), with food and water available ad libitum. All animal studies were approved by the Vanderbilt Institutional Animal Care and Use Committee and conducted in accordance with the Guide for the Care and Use of Laboratory Animals of the United States National Institutes of Health.
(§1) Mice were sacrificed by cervical dislocation and decapitation. The brain, lungs, liver, stomach, small intestines, and kidneys were then rapidly removed and frozen on a metal block in dry ice. The tissue was then placed in a tube and stored at −80° C. until extraction, usually one day after harvesting. For PG and eCB analysis, lipid extraction from tissue was carried out as described in Patel et al., 2009.
(§2) Analytes were quantified using LC-MS/MS on a Quantum triple-quadrupole mass spectrometer in positive-ion mode using selected reaction monitoring. Detection of eicosanoids was performed as described in Kingsley & Marnett, 2007. For fatty acid analysis the mobile phases used were 80 μM AgOAc with 0.1% (v/v) acetic acid in H2O (solvent A) and 120 μM AgOAc with 0.1% (v/v) acetic acid in MeOH (solvent B). The analytes were eluted using a gradient from 20% A to 99% B over 5 minutes. The transitions used were m/z 300→282 for PEA, m/z 328→310 for SEA, m/z 434→416 for OEA, m/z 456→438 for AEA, m/z 464→446 for AEA-d8, m/z 331→257 for 2-PG, m/z 359→285 for 2-SG, m/z 463→389 for 2-OG, m/z 485→411 for 2-AG, m/z 493→419 for 2-AG-d8, m/z 519→409 for AA, and m/z 527→417 for AA-d8. Peak areas for the analytes were normalized to the appropriate internal standard and then normalized to tissue mass for in vivo samples.

[7] = tested on: ICR mice; assay: Novel open field test; type: in vivo; conditions: 10 mg/kg
Description: Animals were tested for open-field activity in a novel environment one hour after i.p. injection of compound as described in Sumislawski et al., 2011. Briefly, one-hour sessions were performed using automated experimental chambers (27.9 27.9 cm; MEDOFA-510; MED Associates, Ga., Vermont, United States of America) under constant illumination within a sound-attenuated room. Analysis of open field activity was performed using Activity Monitor v5.10 (MED Associates).

[8] = tested on: peripheral tissue eCB, NAE, MAG and PG levels; assay: Peripheral tissue NAE, MAG and PG levels after i.p. injection; type: in vivo, mice; conditions: stomach, heart, kidney, lung, intestine
Description: as §1
as §2, with “samples. […]” for “samples.”

[9] = 2-AG IC50, 2-AG oxygenation by COX-2
[10] = AA IC50, AA oxygenation by COX-2
[11] = read-out: IC50, COX-2 oxygenation of 2-AG, 50 μM 2-AG, 15 min preincubation, LC-MS/MS

Compound: Nc1ccc(O)cc1 [4-aminophenol]
- IC50 [1]: 71000 nM
- Inhibition of AA oxygenation [1]: No inhibition

- Inhibition of AA oxygenation [1]: No inhibition
Compound: CC(=O)Nc1ccc(O)cc1 [APAP, acetaminophen]

- IC50 [2, 9]: 590 nM
- IC50 [2, 10]: 610 nM
Compound: COc1ccc2c(c1)c(CC(N)=O)c(C)n2C(=O)c1ccc(Cl)cc1 [B]

- IC50 [2, 9]: 237 nM
- IC50 [2, 10]: 262 nM
Compound: COc1ccc2c(c1)c(CC(=O)NCCO)c(C)n2C(=O)c1ccc(Cl)cc1 [C]

- inhibition at 25 µM ([3]; RAW264.7, at 25 μM compound): 40%
- IC50 ([3]; conversion of 2-AG to PGE2-G/PGD2-G): 5200 nM
- inhibition at 10 µM ([4]; at 10 μM inhibitor, AA 5 μM, read-out: AA % Inhibition): 5%
- IC50 ([4]; murine COX-2 40 nM, 3 min preincubation, 2-AG 5 μM, 37° C., 30 s, mean ± SD, read-out: 2-AG IC50): 1100 nM
Compound: CC(C)(C(=O)O)c1ccc(-c2ccccc2)c(F)c1 [Compound 4a, 2-(2-fluoro-[1,1′-biphenyl]-4-yl)-2-methylpropanoic acid]

Compound: COc1ccc2c(c1)c(CC(=O)O)cn2C(=O)c1ccc(Cl)cc1 [DM-INDO]
- IC50 ([5]; 50 μM AA, 15 min preincubation, LC-MS/MS, read-out: IC50, COX-2 oxygenation of arachidonic acid): > 25000 nM
- IC50 [5, 11]: 250 nM

- IC50 [2, 9]: 424 nM
- IC50 [2, 10]: 19000 nM
Compound: COc1ccc2c(c1)c(CC(=O)N(C)C)c(C)n2C(=O)c1ccc(Cl)cc1 [D]

- IC50 [2, 9]: 583 nM
- IC50 [2, 10]: 23000 nM
Compound: CCN(CC)C(=O)Cc1c(C)n(C(=O)c2ccc(Cl)cc2)c2ccc(OC)cc12 [E]

- IC50 [2, 9]: 653 nM
- IC50 [2, 10]: > 25000 nM
Compound: COc1ccc2c(c1)c(CC(=O)N1CCCCC1)c(C)n2C(=O)c1ccc(Cl)cc1 [F]

- IC50 [2, 9]: 715 nM
- IC50 [2, 10]: > 25000 nM
Compound: COc1ccc2c(c1)c(CC(=O)N(C)CCc1ccccc1)c(C)n2C(=O)c1ccc(Cl)cc1 [G]

Compound: Cc1ccc(Nc2c(F)cccc2Cl)c(CC(=O)O)c1 [Lumiracoxib]
- IC50, COX-2 oxygenation of arachidonic acid ([5]; 50 μM AA, 15 min preincubation, LC-MS/MS): No inhibition
- IC50 [5, 11]: 40 nM

Compound: CS(=O)(=O)Nc1ccc([N+](=O)[O-])cc1OC1CCCCC1 [NS-398, reference compound]
- Brain AA levels ([6]; 2 hours): significantly increased
- Brain PG levels ([6]; 2 hours): profoundly decreased
- Brain AEA levels ([6]; 2 hours, vs vehicle): significantly increased
- Center distance travelled and center time in the open-field arena [7]: significantly increased

- IC50 ([5]; read-out: IC50, COX-2 oxygenation of 2-AG): 85 nM
- IC50 ([5]; read-out: IC50, COX-2 oxygenation of arachidonic acid): 520 nM
Compound: CS(=O)(=O)c1ccc(C2=C(c3ccccc3)C(=O)OC2)cc1 [Rofecoxib]

Compound: COc1ccc(-n2nc(C(F)(F)F)cc2-c2ccc(Cl)cc2)cc1 [SC-560, reference compound]
- Brain AA levels ([6]; 2 hours): significantly increased
- Brain PG levels ([6]; 2 hours): profoundly decreased
- Brain AEA levels ([6]; 2 hours, vs vehicle): significantly increased
- Center distance travelled and center time in the open-field arena [7]: did not have any significant behavioral effect; also recorded: no significant behavioral effects

Compound: COc1ccc2c(c1)c(CC(=O)O)c(C)n2C(=O)c1ccc(Cl)cc1 [indomethacin, reference compound]
- Brain AA levels ([6]; 2 hours): significantly increased
- Brain PG levels ([6]; 2 hours): profoundly decreased
- Brain 2-AG levels ([6]; 10 mg/kg i.p. (highest dose), 2 hours, vs vehicle): significantly increased
- Brain AEA levels ([6]; 2 hours, vs vehicle): significantly increased
- Brain AEA levels (Example 8) ([6]; 2 hours after i.p administration, dose not stated): increased
- Brain or lung PG levels (Example 8) ([6]; dose not stated): profoundly decreased
- PG levels in peripheral tissues [8]: robustly decreased
- Center distance travelled and center time in the open-field arena [7]: significantly increased
- Center distance travelled and center time in the open-field arena ([7]; listed as Indomethacin): increased
